Experimental data published in patent US8987256B2, “Oxo-heterocyclic substituted carboxylic acid derivatives and the use thereof” (Bayer Intellectual Property GmbH, priority 2008, dated 2015).

Columns and labels:
Format in all cases: biochemical
[1] = biological target: T1, Heme-containing sGC (recombinant soluble guanylate cyclase) (Rattus norvegicus, UniProt P20595); experiment: Stimulation of recombinant soluble guanylate cyclase (sGC) in vitro, heme-containing enzyme
T1 construct: made in house; host or cells: baculovirus/Sf9 insect cells
T1 sequence (P20595 1-619): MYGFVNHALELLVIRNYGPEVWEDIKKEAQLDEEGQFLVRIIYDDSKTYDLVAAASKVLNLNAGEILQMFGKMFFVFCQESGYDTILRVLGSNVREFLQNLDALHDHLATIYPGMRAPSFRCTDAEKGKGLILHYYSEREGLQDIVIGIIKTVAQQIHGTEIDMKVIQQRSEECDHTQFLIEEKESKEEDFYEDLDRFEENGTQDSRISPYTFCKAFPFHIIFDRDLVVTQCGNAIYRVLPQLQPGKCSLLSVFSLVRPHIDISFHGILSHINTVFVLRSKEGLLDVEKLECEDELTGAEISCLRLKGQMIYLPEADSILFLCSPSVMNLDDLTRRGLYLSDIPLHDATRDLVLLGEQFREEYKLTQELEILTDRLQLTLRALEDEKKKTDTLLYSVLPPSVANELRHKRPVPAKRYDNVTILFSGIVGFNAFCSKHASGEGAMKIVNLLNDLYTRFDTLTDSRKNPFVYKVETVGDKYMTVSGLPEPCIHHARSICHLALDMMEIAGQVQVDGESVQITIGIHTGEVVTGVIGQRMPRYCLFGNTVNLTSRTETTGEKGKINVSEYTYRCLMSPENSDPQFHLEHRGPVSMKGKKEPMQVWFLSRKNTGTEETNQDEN
T1 sequence (P19686 1-690 partner): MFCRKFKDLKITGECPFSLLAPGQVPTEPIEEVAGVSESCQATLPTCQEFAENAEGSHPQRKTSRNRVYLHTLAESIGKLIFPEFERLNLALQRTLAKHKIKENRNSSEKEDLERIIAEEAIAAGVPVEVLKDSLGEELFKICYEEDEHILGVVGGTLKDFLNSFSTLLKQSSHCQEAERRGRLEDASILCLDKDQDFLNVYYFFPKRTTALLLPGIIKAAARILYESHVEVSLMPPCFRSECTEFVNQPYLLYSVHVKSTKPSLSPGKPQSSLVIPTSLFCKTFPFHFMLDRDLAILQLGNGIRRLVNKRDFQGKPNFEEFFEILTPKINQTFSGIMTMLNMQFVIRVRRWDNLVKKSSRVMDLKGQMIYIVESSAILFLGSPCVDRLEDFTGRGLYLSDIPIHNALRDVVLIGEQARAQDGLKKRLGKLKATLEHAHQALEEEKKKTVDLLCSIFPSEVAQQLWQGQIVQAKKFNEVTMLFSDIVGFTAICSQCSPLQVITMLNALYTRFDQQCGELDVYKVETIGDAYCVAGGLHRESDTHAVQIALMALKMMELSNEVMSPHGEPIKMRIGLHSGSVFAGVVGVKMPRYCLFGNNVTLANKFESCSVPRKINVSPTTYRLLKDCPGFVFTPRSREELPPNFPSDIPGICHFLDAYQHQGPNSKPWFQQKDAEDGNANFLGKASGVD
Excerpt: Hoenicka, E. M. Becker, H. Apeler, T. Sirichoke, H. Schroeder, R. Gerzer and J.-P. Stasch, “Purified soluble guanylyl cyclase expressed in a baculovirus/Sf9 system: Stimulation by YC-1, nitric oxide, and carbon oxide”, J. Mol. Med. 77 (1999), 14-23. The heme-free guanylate cyclase is obtained by adding Tween 20 to the sample buffer (0.5% in the final concentration).
(§1) The activation of sGC by a test substance is reported as n-fold stimulation of the basal activity.

[2] = biological target: T2, soluble guanylate cyclase (sGC) (Rattus norvegicus, UniProt P20595); experiment: Activating action at the sGC enzyme in vitro (PPi detection, luciferase)
T2 construct: made in house; host or cells: baculovirus/Sf9 insect cells
T2 sequence (P20595 1-619): T1 sequence (P20595 1-619)
T2 sequence (P19686 1-690 partner): T1 sequence (P19686 1-690 partner)
In short: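 Rat sGC (0–10 nM) preincubated 10 min at room temperature with compound in TEA buffer, pH 7.5; reaction started with GTP (1.25 mM solution). PPi formed read continuously by luciferase luminescence; stimulation expressed relative to unstimulated enzyme. Heme-free enzyme tested after 30 min with 25 μM ODQ.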

[3] = biological target: T3, Heme-free sGC (recombinant soluble guanylate cyclase) (Rattus norvegicus, UniProt P20595); experiment: Stimulation of recombinant soluble guanylate cyclase (sGC) in vitro, heme-free enzyme
T3 construct: made in house; host or cells: baculovirus/Sf9 insect cells
T3 sequence (P20595 1-619): T1 sequence (P20595 1-619)
T3 sequence (P19686 1-690 partner): T1 sequence (P19686 1-690 partner)
Experimental: Investigations on the stimulation of recombinant soluble guanylate cyclase (sGC) by the compounds according to the invention with and without sodium nitroprusside, and with and without the heme-dependent sGC inhibitor 1H-1,2,4-oxadiazolo-(4,3a)-quinoxalin-1-one (ODQ) are carried out by the method described in detail in the following reference: M. Hoenicka, E. M. Becker, H. Apeler, T. Sirichoke, H. Schroeder, R. Gerzer and J.-P. Stasch, “Purified soluble guanylyl cyclase expressed in a baculovirus/Sf9 system: Stimulation by YC-1, nitric oxide, and carbon oxide”, J. Mol. Med. 77 (1999), 14-23. The heme-free guanylate cyclase is obtained by adding Tween 20 to the sample buffer (0.5% in the final concentration).
as §1

Stimulation (n-fold) of heme-containing sGC, basal ([1]; 0.1 μM Example 103): 1.2 n-fold
Stimulation (n-fold) of heme-containing sGC, +0.1 μM DEA/NO ([1]; 0.1 μM Example 103): 6.9 n-fold
Stimulation (n-fold) of heme-containing sGC, +10 μM ODQ ([1]; 0.1 μM Example 103): 5.8 n-fold
Stimulation (n-fold) of heme-containing sGC, basal ([1]; 1 μM Example 103): 1.4 n-fold
Stimulation (n-fold) of heme-containing sGC, +0.1 μM DEA/NO ([1]; 1 μM Example 103): 7.8 n-fold
Stimulation (n-fold) of heme-containing sGC, +10 μM ODQ ([1]; 1 μM Example 103): 8.5 n-fold
Stimulation (n-fold) of heme-containing sGC, basal ([1]; 10 μM Example 103): 6.2 n-fold
Stimulation (n-fold) of heme-containing sGC, +0.1 μM DEA/NO ([1]; 10 μM Example 103): 13.5 n-fold
Stimulation (n-fold) of heme-containing sGC, +10 μM ODQ ([1]; 10 μM Example 103): 36.8 n-fold
Stimulation (n-fold) of heme-containing sGC, basal ([1]; 100 μM Example 103): 22.3 n-fold
Stimulation (n-fold) of heme-containing sGC, +0.1 μM DEA/NO ([1]; 100 μM Example 103): 35.6 n-fold
Stimulation (n-fold) of heme-containing sGC, +10 μM ODQ ([1]; 100 μM Example 103): 91.8 n-fold
Effect of combination with the NO donor DEA/NO on sGC stimulation ([1]; combination with DEA/NO): no synergistic effect
MEC (minimum effective concentration), activating action at the sGC enzyme [2]: 20 nM
EC50 ([2]; read-out: EC50 (concentration at 50% of maximum efficacy), activating action at the sGC enzyme): 381 nM
Stimulation (n-fold) of heme-free sGC, basal ([3]; 0.1 μM Example 103): 1.1 n-fold
Stimulation (n-fold) of heme-free sGC, basal ([3]; 1 μM Example 103): 2.4 n-fold
Stimulation (n-fold) of heme-free sGC, basal ([3]; 10 μM Example 103): 13.9 n-fold
Stimulation (n-fold) of heme-free sGC, basal ([3]; 100 μM Example 103): 56.1 n-fold
Structure (SMILES): O=C(O)CCc1cccc(NC(=O)C(c2ccc(CN3N=C(c4ccccc4)OCC3=O)cc2)C2CCCC2)c1 (single isomer, unassigned) [Example 103, 3-{3-[(Cyclopentyl{4-[(5-oxo-2-phenyl-5,6-dihydro-4H-1,3,4-oxadiazin-4-yl)methyl]phenyl}acetyl)amino]phenyl}propanoic acid]
